Data on twelve molecules can be found in ChEMBL document CHEMBL1201862, “PubChem BioAssay data set” (2004).

Among the test systems are 786-0; CCRF-CEM; HOP-62; IGROV-1; LOX IMVI; MOLT-4; OVCAR-3; OVCAR-4; OVCAR-8; RPMI-8226; RXF 393; SF-295; SK-OV-3; TK-10; UACC-257; UACC-62; NCI-H522; OVCAR-5; Malme-3M.
Assay in all cases: NCI-60 cell line screen, 48 h

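Five concentrations, 48 hours, 96-well plates. Abbreviation: GI50, concentration required for 50% inhibition of growth.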 Activity calls are given as the source filed them. No stated cut-off is given here; in the data, active = GI50 up to about 1.1 µM and inactive = higher.

Regarding `COc1ccc(C(c2ccc(C(C)C)cc(=O)c2O)c2c(O)cc3oc(-c4ccccc4)cc(=O)c3c2O)cc1` (stereo not drawn), the GI50 is 3.57 µM (inactive) with 786-0; 4.04 µM (inactive) with CCRF-CEM; 2.07 µM (inactive) in the assay on HOP-62; 3.91 µM (inactive) with IGROV-1; 14.6 µM (inactive) in the assay on LOX IMVI; 5.73 µM (inactive) in the assay on MOLT-4. Besides, the GI50 in the assay on OVCAR-3 was 5.86 µM (inactive); in the assay on OVCAR-4 it was 7.53 µM (inactive); with OVCAR-8, 6.9 µM (inactive); with RPMI-8226, 6.21 µM (inactive); in the assay on RXF 393, 3.71 µM (inactive); with SF-295, 4.93 µM (inactive). In addition, the GI50 was 12.5 µM (inactive) in the assay on SK-OV-3, 9.42 µM (inactive) in the assay on TK-10, 27.4 µM (inactive) in the assay on UACC-257 and 6.65 µM (inactive) with UACC-62.
Consider `CCCNC(=O)C(C)C1CCC2(C)C=CC(=O)C(C)=C2C1O` (stereo not drawn), for which the GI50 in the assay with CCRF-CEM, with HOP-62, in the assay on IGROV-1, in the assay on LOX IMVI, with MOLT-4 and in the assay on NCI-H522 was > 100 µM (inactive) each time. Besides, the GI50 with OVCAR-3, with OVCAR-4, with OVCAR-5, in the assay with OVCAR-8, with RPMI-8226 and with RXF 393 was > 100 µM (inactive) each time. Further, the GI50 with SF-295, in the assay on SK-OV-3, in the assay on UACC-257 and with UACC-62 was > 100 µM (inactive) throughout.
With `CC12CCC3C(CCC4=CC(O)CCC43C=O)C1(O)CCC2c1ccc(=O)oc1` (stereo not drawn), the GI50 in the assay on HOP-62 is 0.05 µM (active); in the assay on IGROV-1, 0.00984 µM (active); with LOX IMVI it was 0.00748 µM (active); in the assay with NCI-H522, 0.0015 µM (active); with OVCAR-3 it was 0.00368 µM (active); in the assay on OVCAR-4, 0.00723 µM (active). Besides, the GI50 is 0.0693 µM (active) in the assay on OVCAR-5; 0.00622 µM (active) in the assay with OVCAR-8; 0.05 µM (active) in the assay with RPMI-8226; 0.0104 µM (active) in the assay with SF-295; 0.0113 µM (active) in the assay with SK-OV-3; 0.0139 µM (active) in the assay with UACC-257. The GI50 in the assay with UACC-62 was 0.05 µM (active).
For the molecule `COc1ccc2oc(-c3cccnc3)cc(=O)c2c1`, the GI50 was > 100 µM (inactive) with 786-0; 49.9 µM (inactive) in the assay with CCRF-CEM; 84.7 µM (inactive) in the assay on HOP-62; 70.8 µM (inactive) in the assay on IGROV-1; 47.5 µM (inactive) in the assay with LOX IMVI; 36.6 µM (inactive) with MOLT-4. Also, the GI50 was > 100 µM (inactive) in the assay with Malme-3M; 91.8 µM (inactive) in the assay on OVCAR-3; > 100 µM (inactive) in the assay with OVCAR-4; > 10 µM (inactive) in the assay on OVCAR-5; 53 µM (inactive) in the assay on RPMI-8226; > 100 µM (inactive) in the assay with RXF 393. In addition, the GI50 is > 100 µM (inactive) in the assay on SF-295, > 100 µM (inactive) in the assay with UACC-257 and 80.7 µM (inactive) in the assay with UACC-62.
Consider `C=C1N(C)c2ccc(S(=O)(=O)c3ccc4c(c3)C(C)(C)C(=C)N4C)cc2C1(C)C`, for which the GI50 in the assay with 786-0 was 58.5 µM (inactive); in the assay on CCRF-CEM, 50.1 µM (inactive); in the assay with HOP-62, 56.1 µM (inactive); in the assay on IGROV-1, 27.3 µM (inactive); with MOLT-4 it was 18 µM (inactive); with Malme-3M, 19.5 µM (inactive). The GI50 was 20.7 µM (inactive) in the assay on NCI-H522; 25.4 µM (inactive) in the assay with OVCAR-3; 35.3 µM (inactive) with OVCAR-4; 83.9 µM (inactive) with OVCAR-5; 27.1 µM (inactive) in the assay on OVCAR-8; 9.08 µM (inactive) with RPMI-8226. The GI50 in the assay on SF-295 is 22.8 µM (inactive); in the assay on SK-OV-3, > 100 µM (inactive); in the assay on TK-10, 36.1 µM (inactive); in the assay with UACC-257 it was 26.4 µM (inactive); in the assay with UACC-62 it was 29.1 µM (inactive).
For `CC(C)=C[C@@H]1C[C@H](C)[C@H]2CC[C@H](C)[C@H]3C(=O)C(O)=C(C)C(=O)[C@]123`, the GI50 is > 100 µM (inactive) in the assay with 786-0; 99.1 µM (inactive) with CCRF-CEM; > 100 µM (inactive) in the assay with HOP-62; > 100 µM (inactive) with IGROV-1; > 100 µM (inactive) in the assay on LOX IMVI; > 100 µM (inactive) with MOLT-4. For the same molecule, the GI50 was > 100 µM (inactive) with Malme-3M; 48.1 µM (inactive) in the assay on NCI-H522; > 100 µM (inactive) in the assay on OVCAR-3; 90.8 µM (inactive) in the assay on OVCAR-4; > 100 µM (inactive) in the assay with OVCAR-5; > 100 µM (inactive) in the assay on OVCAR-8. Besides, the GI50 in the assay on RPMI-8226, with SF-295, in the assay on SK-OV-3, with TK-10, in the assay on UACC-257 and in the assay on UACC-62 was > 100 µM (inactive) each time.
With `CCC1C(=O)C[C@H]2[C@@H]3C(O)CC4=CC(=O)CC[C@]4(C)[C@H]3CC[C@]12C` (stereo partly drawn), the GI50 in the assay on 786-0, with CCRF-CEM, in the assay with HOP-62, with IGROV-1, in the assay on LOX IMVI and with MOLT-4 was > 50 µM (inactive) each time. In addition, the GI50 with Malme-3M is 25.8 µM (inactive); in the assay on NCI-H522, > 50 µM (inactive); with OVCAR-3 it was > 50 µM (inactive); in the assay on OVCAR-4, > 50 µM (inactive); with OVCAR-5 it was > 50 µM (inactive); with OVCAR-8, > 50 µM (inactive). For the same molecule, the GI50 with RPMI-8226, with SF-295, with SK-OV-3, in the assay with TK-10, in the assay on UACC-257 and in the assay with UACC-62 was > 50 µM (inactive) in each case.
With `C[C@]12CCC(=O)C=C1CC[C@@H]1C2CC[C@]2(C)NC(=O)C(C#N)CC12` (stereo partly drawn), the GI50 in the assay on 786-0 was > 100 µM (inactive); in the assay on CCRF-CEM, > 100 µM (inactive); in the assay on HOP-62, 39.6 µM (inactive); in the assay on IGROV-1, > 100 µM (inactive); with MOLT-4, > 100 µM (inactive); in the assay on Malme-3M, > 100 µM (inactive). Moreover, the GI50 in the assay with OVCAR-3, in the assay on OVCAR-4, with OVCAR-5, with OVCAR-8, in the assay with RPMI-8226 and with RXF 393 was > 100 µM (inactive) throughout. The GI50 in the assay on SF-295, with SK-OV-3, with TK-10, in the assay with UACC-257 and with UACC-62 was > 100 µM (inactive) in each case.
Turning to `COc1ccc2nc3c(C(=O)NCCN(C)C)cccc3cc2c1`, the GI50 is 1.78 µM (inactive) in the assay with CCRF-CEM; 2.63 µM (inactive) in the assay on HOP-62; 2.03 µM (inactive) in the assay on IGROV-1; 1.63 µM (inactive) in the assay on LOX IMVI; 0.569 µM (active) in the assay with MOLT-4; 2.6 µM (inactive) in the assay on OVCAR-4. The GI50 in the assay on OVCAR-5 is 2.1 µM (inactive); in the assay with OVCAR-8 it was 1.47 µM (inactive); with RPMI-8226 it was 2.16 µM (inactive); with RXF 393, 1.78 µM (inactive); in the assay with SF-295, 1.96 µM (inactive); in the assay on SK-OV-3, 2.21 µM (inactive). Also, the GI50 is 2.11 µM (inactive) in the assay with UACC-257 and 1.46 µM (inactive) in the assay on UACC-62.
Regarding `CN[C@@H](C)[C@@H](NC)c1ccccc1`, the GI50 in the assay on 786-0, in the assay on CCRF-CEM, with IGROV-1, in the assay on LOX IMVI, with MOLT-4 and in the assay on NCI-H522 was > 100 µM (inactive) throughout. The GI50 in the assay with OVCAR-3, with OVCAR-8, in the assay with RPMI-8226, in the assay with RXF 393, in the assay on SF-295 and in the assay with SK-OV-3 was > 100 µM (inactive) each time. The GI50 in the assay on TK-10, in the assay on UACC-257 and with UACC-62 was > 100 µM (inactive) throughout.
Take `CC(=O)Nc1cccc2[nH]c3ccccc3c(=O)c12`: the GI50 in the assay on 786-0 is 17.6 µM (inactive); in the assay on CCRF-CEM, 21.5 µM (inactive); with IGROV-1, 26.4 µM (inactive); with MOLT-4 it was 17.1 µM (inactive); in the assay on Malme-3M, 22.3 µM (inactive); in the assay on NCI-H522 it was 10.3 µM (inactive). Besides, the GI50 was 20.1 µM (inactive) in the assay on OVCAR-3; 22.8 µM (inactive) in the assay with OVCAR-4; 20.6 µM (inactive) with OVCAR-5; 16.4 µM (inactive) in the assay on OVCAR-8; 14.7 µM (inactive) in the assay on RPMI-8226; 19.5 µM (inactive) in the assay on SF-295. Besides, the GI50 in the assay on SK-OV-3 was 32.1 µM (inactive); with TK-10, 20.4 µM (inactive); with UACC-257, 25.2 µM (inactive); in the assay on UACC-62, 13.8 µM (inactive).
With `O=S(=O)(N/C(=N\O)Nc1ccc(Cl)cc1)c1cc2ccccc2s1`, the GI50 was 18.4 µM (inactive) with 786-0; 21.9 µM (inactive) in the assay with CCRF-CEM; 17.7 µM (inactive) with HOP-62; 13.5 µM (inactive) in the assay with IGROV-1; 17.5 µM (inactive) in the assay with LOX IMVI; 16.2 µM (inactive) in the assay with MOLT-4. The GI50 in the assay on Malme-3M was 15.6 µM (inactive); in the assay with NCI-H522, 13.8 µM (inactive); in the assay with OVCAR-3, 15 µM (inactive); with OVCAR-4 it was 14.4 µM (inactive); with OVCAR-5, 15.2 µM (inactive); in the assay with OVCAR-8, 16.8 µM (inactive). Also, the GI50 in the assay with RXF 393 is 15.1 µM (inactive); in the assay with SF-295 it was 20.1 µM (inactive); in the assay with SK-OV-3, 16.7 µM (inactive); in the assay with TK-10, 19.4 µM (inactive); in the assay with UACC-257, 22 µM (inactive); in the assay on UACC-62, 15.3 µM (inactive).
